Results taken from patent publication US20110100371A1, “ANTI-VIRAL PROPERTIES OF ZOSTERIC ACID AND RELATED MOLECULES” (FLORIDA GULF COAST UNIVERSITY, priority 2007, published 2011).
“Also recorded” adds a separate entry of the source. Where two headings read alike, the source gives them in different places.

Columns and labels:
DENV-2 strain NG-2 = experiment: Focus forming unit (FFU) reduction assay, DENV-2; type: cell-based, dengue virus
Method: (§1) DENV-1 strain HI-1, DENV-2 strain NG-2, DENV-3 strain H-78, and DENV-4 strain H-42 were obtained from R. Tesh at the World Health Organization Arbovirus Reference Laboratory at the University of Texas at Galveston. Viruses were propagated in the […] kidney epithelial cell line, LLCMK-2, a gift of K. Olsen at Colorado State University. LLCMK-2 cells were grown in Dulbecco's modified eagle medium (DMEM) with 10% (v/v) fetal bovine serum (FBS), 2 mM Glutamax, 100 U/ml penicillin G, 100 μg/ml streptomycin and 0.25 μg/ml amphotericin B, at 37° C. with 5% (v/v) CO2.
LLCMK-2 target cells were seeded at a density of 1×10^5 cells in each well of a 6-well plate 24 h prior to infection. Approximately 200 FFU of virus were incubated with or without chemistries in serum-free DMEM for 1 h at rt. Virus/chemistry or virus/control mixtures were allowed to infect confluent target cell monolayers for 1 h at 37° C., with rocking every 15 m, after which time the medium was aspirated and overlaid with fresh DMEM/10% (v/v) FBS containing 0.85% (w/v) Sea-Plaque Agarose (Cambrex Bio Science, Rockland, Me.). Cells with agar overlays were incubated at 4° C. for 20 m to set the agar. Infected cells were then incubated at 37° C. with 5% CO2 for 3 days (DENV-1, 3 and 4) or 5 days (DENV-2). Infected cultures were fixed with 10% formalin overnight at 4° C., permeabilized with 70% (v/v) ethanol for 20 m, and rinsed with PBS prior to immunostaining. Virus foci were detected using supernatant from mouse anti-DENV hybridoma E60 (obtained from M. Diamond at Washington University) followed by horseradish peroxidase-conjugated goat anti-mouse immunoglobulin (Pierce, Rockford, Ill.) and developed using AEC chromogen substrate (Dako, Carpinteria, Calif.). Results were expressed as the average of at least two independent trials with three replicates in each trial.

DENV-3 strain H-78 = experiment: Focus forming unit (FFU) reduction assay, DENV-3; type: cell-based; conditions: Dengue virus, DENV3, LLC-MK2; DENV-3 (D-3), LLCMK-2 target cells; read-out: IC50 μM ± sem
Method: as §1
(§2) LLCMK-2 target cells were seeded at a density of 1×10^5 cells in each well of a 6-well plate 24 h prior to infection. Approximately 200 FFU of virus were incubated with or without chemistries in serum-free DMEM for 1 h at rt. […] Virus foci were detected using supernatant from mouse anti-DENV hybridoma E60 (obtained from M. Diamond at Washington University) followed by horseradish peroxidase-conjugated goat anti-mouse immunoglobulin (Pierce, Rockford, Ill.) and developed using AEC chromogen substrate (Dako, Carpinteria, Calif.). Results were expressed as the average of at least two independent trials with three replicates in each trial.

DENV-2 [1] = experiment: Post-binding focus-forming assay; type: cell-based, dengue virus; conditions: DENV-2 bound at 4° C., then chemistry added 1 h at 4° C.
Method: To determine if the observed inhibitory effect was due to interference with interactions that occur pre-binding versus post-binding of virions to the target cells, approximately 200 FFU of DENV-2 was allowed to bind to target LLCMK-2 cells for 1 h at 4° C. to allow binding, but prevent internalization. Unbound virus was washed off with PBS at 4° C., then CF 238 was added and incubated at 4° C. for 1 h. Cultures were washed again in 4° C. PBS and warmed to 37° C. Agarose overlays, incubation, and immunological detection were conducted as described for the focus forming assay.

DENV-1 strain HI-1 = experiment: Focus forming unit (FFU) reduction assay, DENV-1; type: cell-based; conditions: Dengue virus, DENV1, LLC-MK2; DENV-1 (D-1), LLCMK-2 target cells; read-out: IC50 μM ± sem
Method: as §1, §2

DENV-2 [2] = experiment: qRT-PCR virus binding assay; type: cell-based, dengue virus; conditions: DENV-2 pre-incubated 45 m at 4° C., infection of LLCMK-2 45 m at 4° C.
Method: Infection of LLCMK-2 target cells in six well plates was performed in duplicate using 10^5 FFU of DENV-2 that had been pre-incubated for 45 m at 4° C. with CF 238 or pooled heterotypic anti-DENY human serum. After a 45 m infection at 4° C., infected monolayers were washed with PBS and harvested with a cell scraper, added to a 1.5 ml microfuge tube containing 350 μl of AR-200 silicone oil (Sigma-Aldrich, St. Louis, Mo.) mixed with 150 μl of silicone fluid (Thomas, Swedesboro, N.J.), and spun at 14,000 rpm in a microfuge for 1 m to separate the unbound virus from the cell-bound virus in the pellets. The tubes were then submerged in liquid nitrogen for 30 s to freeze the contents. The cell pellets with bound virus were recovered by clipping off the bottoms of the tubes with small wire clippers into 15 ml conical tubes. Viral RNA was extracted from the cell pellets using the Qiagen Viral RNA Extraction kit (Qiagen, Chatsworth, Calif.).
Quantitative real time reverse transcription PCR (qRT-PCR) was performed on the extracted RNA using the Quantitect Sybr Green RT-PCR kit (Qiagen inc., Chatsworth, Calif.), following the manufacturer's specifications and amplification protocols, using dengue-specific primers: (Den2F: […], Den2R: […]). […]

DENV-1,2,3 and 4 = experiment: Focus forming unit (FFU) reduction assay, several dengue strains stated together; type: cell-based; conditions: Dengue virus
Method: as §1, §2

DENV-2 [3] = experiment: Pre-binding focus-forming assay; type: cell-based, dengue virus; conditions: DENV-2, chemistry incubated with target cells 1 h at 4° C., rinsed before infection
Method: To determine if the observed inhibitory effect was due to interference caused by modifications to the target cell surface, CF 238 was incubated with the target cells for 1 h at 4° C., the cells were rinsed with PBS, and approximately 200 FFU of DENV-2 was allowed to infect the cells at 4° C. Agarose overlays, incubation, and immunological detection were conducted as described for the focus forming assay.

DENV-2 [4] = experiment: Post-entry focus-forming assay; type: cell-based, dengue virus; conditions: DENV-2, chemistry added post-entry 1 hr at 37° C.
Method: To determine if the observed inhibitory effect was due to interference with post-entry steps in the viral life cycle, approximately 200 FFU of DENV-2 without CF 238 was allowed to bind and enter target cells for 1 h at 37° C. as described for the focus forming assay. Unbound virus was then removed by rinsing with PBS and CF 238 was added to the cells post-entry for 1 hr at 37° C. Cultures were washed again in PBS and agarose overlays, incubation, and immunological detection was conducted as described for the focus forming assay.

DENV-4 strain H-42 = experiment: Focus forming unit (FFU) reduction assay, DENV-4; type: cell-based; conditions: Dengue virus, DENV4, LLC-MK2; DENV-4 (D-4), LLCMK-2 target cells; read-out: IC50 μM ± sem
Method: as §1, §2

[5] = Dengue virus, DENV2, LLC-MK2, read-out: IC50 μM ± sem
[6] = Dengue virus, DENV2, read-out: maximum inhibition
[7] = Dengue virus, DENV2, DENV-2, rounded statement in text, read-out: IC50 (approximate)

For `CN(CCCNC(=O)c1ccc(O)cc1)CCCNC(=O)c1ccc2cc(O)ccc2c1` [CF 290], the IC50 (DENV-2 strain NG-2; [5]) was 294 ± 42 µM and the inhibition at 367 µM (DENV-2 strain NG-2; [6]) was 60%.

`O=C(c1ccc(O)cc1)N1CCCN(C(=O)c2ccc3cc(O)ccc3c2)CC1` [CF 296] was tested, and the “dose-dependent inhibition against DENV-2” value (DENV-2 strain NG-2; DENV-2, result in words) was “did not show evidence of clear dose-dependent inhibition”.

For `CN(CCCNC(=O)c1ccc(O)cc1)CCCNC(=O)c1ccc(O)cc1` [CF 285], the IC50 (DENV-2 strain NG-2; [5]) was 2520 µM, the inhibition at 3000 µM (DENV-2 strain NG-2; [6]) was 63% and the IC50 (DENV-2 strain NG-2; [7]) was about 2000 µM.

In the case of `CCN(CCOC(=O)/C=C/c1ccc(O)cc1)Cc1cc(Cl)ccc1O` [CF 238], the IC50 (DENV-3 strain H-78) is reported as 14 ± 2 µM, the “inhibition of virus already bound to target cells” value (DENV-2 [1]) is reported as “No inhibition of infection was observed” and the IC50 (DENV-1 strain HI-1) is reported as 24 ± 6 µM. The inhibition at 84 µM (DENV-2 strain NG-2; Dengue virus, DENV2, AT84) was 86%, the IC50 (DENV-2 strain NG-2; [5]) was 46 ± 4 µM and the “activity relative to zosteric acid” value (DENV-2 strain NG-2; anti-DENV inhibitory activity compared with the natural product) was about 100 times. For the same compound, the “virus binding/attachment to target cells (qRT-PCR signal)” value (DENV-2 [2]) was “did not inhibit virus binding; also recorded: enhances virus:cell binding”, the inhibition at 84 µM (DENV-1,2,3 and 4; DENV1, AT84, all dengue strains, at 84 μM) was 86 to 100% and the IC50 (DENV-1,2,3 and 4; DENV1, range over DENV-1, 3 and 4, read-out: IC50 against the other three DENV types) was 14 to 47 µM. For the same compound, the “inhibition when target cells treated prior to infection” value (DENV-2 [3]) was “no evidence of inhibition; also recorded: does not inhibit virus infection when pre-incubated with target cells”, the “inhibition when added after viral entry” value (DENV-2 [4]) was “no evidence of inhibition” and the IC50 (DENV-4 strain H-42) was 47 ± 5 µM.

Compound `O=C(O)/C=C/c1ccc(OS(=O)(=O)O)cc1` [ZA, p-sulfoxy-cinnamic acid] has an inhibition at 5000 µM (DENV-2 strain NG-2; Dengue virus, DENV2) of 99%, an IC50 (DENV-2 strain NG-2; [5]) of 2380 µM and an IC50 (DENV-2 strain NG-2; [7]) of about 2000 µM.

`CCN(CCCN(CC)C(=O)c1cccc(O)c1)C(=O)c1cccc(O)c1` [CF 490] showed an IC50 (DENV-2 strain NG-2; [5]) of 2380 µM, an inhibition at 3000 µM (DENV-2 strain NG-2; [6]) of 84% and an IC50 (DENV-2 strain NG-2; [7]) of about 2000 µM.
